One test deals with T1, FGFR1 (Homo sapiens, UniProt P11362).
T1 construct: made in house; host or cells: E. coli (BL21-derived) infected with T7 phage
Put plainly: Kinase binding assay (Kd), kinase-tagged T7 phage, affinity beads, qPCR. Particulars: in vitro binding assay, 11-point 3-fold dilution series. (In general: Real-time PCR tracks product formation cycle by cycle.)

The next test deals with T2, FGFR2 (Homo sapiens, UniProt P21802).
T2 construct: made in house; host or cells: E. coli (BL21-derived) infected with T7 phage
T2 sequence (P21802 22-821): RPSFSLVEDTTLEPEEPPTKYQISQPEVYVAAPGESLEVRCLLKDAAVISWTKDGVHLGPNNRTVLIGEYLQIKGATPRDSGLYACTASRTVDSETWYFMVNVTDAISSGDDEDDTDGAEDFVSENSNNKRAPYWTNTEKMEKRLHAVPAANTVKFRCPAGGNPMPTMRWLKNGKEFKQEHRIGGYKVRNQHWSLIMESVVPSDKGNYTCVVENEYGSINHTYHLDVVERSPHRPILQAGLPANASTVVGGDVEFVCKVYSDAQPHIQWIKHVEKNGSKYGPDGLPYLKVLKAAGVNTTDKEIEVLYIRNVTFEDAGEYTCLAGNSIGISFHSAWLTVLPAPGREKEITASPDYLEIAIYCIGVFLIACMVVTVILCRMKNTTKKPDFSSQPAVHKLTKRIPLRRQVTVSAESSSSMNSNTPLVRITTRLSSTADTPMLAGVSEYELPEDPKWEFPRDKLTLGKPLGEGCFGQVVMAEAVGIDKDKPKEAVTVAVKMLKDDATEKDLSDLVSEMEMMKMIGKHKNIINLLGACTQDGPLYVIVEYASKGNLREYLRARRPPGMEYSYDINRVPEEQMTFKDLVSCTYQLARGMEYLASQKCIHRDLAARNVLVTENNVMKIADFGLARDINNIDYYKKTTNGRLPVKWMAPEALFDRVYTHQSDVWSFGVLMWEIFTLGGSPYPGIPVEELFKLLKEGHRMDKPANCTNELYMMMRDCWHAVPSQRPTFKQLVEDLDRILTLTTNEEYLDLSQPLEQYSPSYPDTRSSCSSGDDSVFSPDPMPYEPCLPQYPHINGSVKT
Described as above. The settings on record: in vitro binding assay, 11-point 3-fold dilution series.

The target in another test is T3, FGFR3 (Homo sapiens, UniProt P22607).
T3 construct: made in house; host or cells: E. coli (BL21-derived) infected with T7 phage
T3 sequence (P22607 23-806): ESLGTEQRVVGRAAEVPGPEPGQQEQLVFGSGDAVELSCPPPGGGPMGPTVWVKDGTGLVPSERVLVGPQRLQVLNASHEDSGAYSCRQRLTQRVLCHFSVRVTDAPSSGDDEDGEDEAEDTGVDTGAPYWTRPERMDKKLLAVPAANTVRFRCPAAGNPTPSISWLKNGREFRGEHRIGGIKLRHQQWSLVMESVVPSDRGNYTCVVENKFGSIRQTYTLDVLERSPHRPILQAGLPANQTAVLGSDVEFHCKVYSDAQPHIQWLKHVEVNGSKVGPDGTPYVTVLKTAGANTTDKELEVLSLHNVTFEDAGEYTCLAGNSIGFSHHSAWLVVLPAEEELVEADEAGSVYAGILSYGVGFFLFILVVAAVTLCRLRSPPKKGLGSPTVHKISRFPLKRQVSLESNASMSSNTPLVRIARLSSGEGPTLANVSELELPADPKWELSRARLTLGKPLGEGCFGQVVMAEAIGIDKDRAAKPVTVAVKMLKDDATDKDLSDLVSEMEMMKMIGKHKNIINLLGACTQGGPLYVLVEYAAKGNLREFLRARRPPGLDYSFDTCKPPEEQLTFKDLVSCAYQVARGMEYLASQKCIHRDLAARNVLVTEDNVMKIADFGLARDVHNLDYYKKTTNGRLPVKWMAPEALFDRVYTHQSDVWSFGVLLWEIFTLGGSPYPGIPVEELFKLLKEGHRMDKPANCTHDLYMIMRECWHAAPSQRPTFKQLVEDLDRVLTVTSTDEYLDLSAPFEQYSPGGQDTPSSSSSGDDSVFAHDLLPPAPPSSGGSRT
Described as above. Particulars: in vitro binding assay, 11-point 3-fold dilution series.

A further test concerns the target T4, FGFR3 (V555M) (Homo sapiens, UniProt P22607, V555M).
T4 construct: made in house; host or cells: E. coli (BL21-derived) infected with T7 phage
The description is as above. Particulars: in vitro binding assay, 11-point 3-fold dilution series.

For the next test, the target named is T5, FGFR4 (Homo sapiens, UniProt P22455).
T5 construct: made in house; host or cells: E. coli (BL21-derived) infected with T7 phage
T5 sequence (P22455 22-802): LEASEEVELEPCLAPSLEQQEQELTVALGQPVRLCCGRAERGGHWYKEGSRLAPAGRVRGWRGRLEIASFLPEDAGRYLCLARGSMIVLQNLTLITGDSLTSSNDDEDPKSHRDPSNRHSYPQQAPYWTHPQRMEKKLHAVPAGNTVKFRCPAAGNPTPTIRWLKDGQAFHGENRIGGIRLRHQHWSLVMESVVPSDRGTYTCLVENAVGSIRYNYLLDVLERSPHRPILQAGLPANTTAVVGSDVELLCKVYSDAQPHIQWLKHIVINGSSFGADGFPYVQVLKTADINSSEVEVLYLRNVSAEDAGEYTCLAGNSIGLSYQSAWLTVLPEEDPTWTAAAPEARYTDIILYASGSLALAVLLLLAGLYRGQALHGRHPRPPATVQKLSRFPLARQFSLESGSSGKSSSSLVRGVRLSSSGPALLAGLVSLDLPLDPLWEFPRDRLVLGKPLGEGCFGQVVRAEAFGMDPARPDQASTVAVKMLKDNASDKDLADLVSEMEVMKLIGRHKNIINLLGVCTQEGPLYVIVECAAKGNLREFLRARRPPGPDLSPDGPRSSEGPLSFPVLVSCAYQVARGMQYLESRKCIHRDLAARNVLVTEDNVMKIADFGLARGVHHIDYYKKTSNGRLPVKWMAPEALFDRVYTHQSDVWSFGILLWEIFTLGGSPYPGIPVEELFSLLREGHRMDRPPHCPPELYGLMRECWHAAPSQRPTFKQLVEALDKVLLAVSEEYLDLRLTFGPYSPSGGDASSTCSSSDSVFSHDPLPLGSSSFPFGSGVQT
The test is described as above. Particulars: in vitro binding assay, 11-point 3-fold dilution series.

A further test has as its target T6, Ba/F3 BCR-FGFR1 (Homo sapiens, UniProt P11362).
T6 construct: BCR (fusion partner); host or cells: Ba/F3; the other entry of the earlier key: BCR (P11274, Breakpoint cluster region protein)
Put plainly: Ba/F3 cell viability assay (CellTiter-Glo 2.0). In kind it is cell-based. The settings on record: Ba/F3 cell data, BCR-FGFR1 fusion, 48 hours. (In general: In ATP-based viability assays light output follows the ATP content of the culture.)

The target in another test is T7, Ba/F3 BCR-FGFR2 (Homo sapiens, UniProt P21802).
T7 construct: BCR (fusion partner); host or cells: Ba/F3; the other entry of the earlier key: BCR (P11274, Breakpoint cluster region protein)
T7 sequence (P21802 481-770 limits assumed): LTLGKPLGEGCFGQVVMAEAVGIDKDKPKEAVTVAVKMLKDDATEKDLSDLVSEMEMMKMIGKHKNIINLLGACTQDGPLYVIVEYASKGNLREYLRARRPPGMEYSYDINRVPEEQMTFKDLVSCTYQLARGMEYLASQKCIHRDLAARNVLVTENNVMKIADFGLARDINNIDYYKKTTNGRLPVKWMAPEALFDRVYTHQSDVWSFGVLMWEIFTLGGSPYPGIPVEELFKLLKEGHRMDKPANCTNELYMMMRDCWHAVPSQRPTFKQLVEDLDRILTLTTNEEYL
Put plainly: Ba/F3 cell viability assay (CellTiter-Glo 2.0). In kind it is cell-based. The settings on record: Ba/F3 cell data, BCR-FGFR2 fusion, 48 hours.

The next test has as its target T8, Ba/F3 FGFR3-BAIAP2L1 (Homo sapiens, UniProt P22607).
T8 construct: BAIAP2L1 (fusion partner, Q9UHR4 if human); host or cells: Ba/F3; the other entry of the earlier key: BAIAP2L1 (Q9UHR4, BAR/IMD domain-containing adapter protein 2-like 1)
Put plainly: Ba/F3 cell viability assay (CellTiter-Glo 2.0). Particulars: Ba/F3 cell data, FGFR3-BAIAP2L1 fusion, 48 hours. In kind it is cell-based.

Another test concerns the target T9, Ba/F3 ETV5-FGFR4 (Homo sapiens, UniProt P22455).
T9 construct: host or cells: Ba/F3; the other entry of the earlier key: ETV5 (P41161, ETS translocation variant 5)
Put plainly: Ba/F3 cell viability assay (CellTiter-Glo 2.0). In kind it is cell-based. The settings on record: Ba/F3 cell data, ETV5-FGFR4 fusion, 48 hours. The source says:
Experimental Purpose: Recombinant kinase fusions are transduced into parental Ba/F3, which becomes dependent upon this constitutive kinase activity for IL3-independent survival. Inhibition of kinase activity leads to cell death, which is monitored using CellTiter-Glo® 2.0 (Promega) which measures intracellular ATP concentration that in turn serves as a marker for viability. BCR-FGFR1 Ba/F3, BCR-FGFR2 and FGFR3-BAIAP2L1 Ba/F3 were obtained from Advanced Cellular Dynamics (Seattle, WA). ETV6-FGFR4 was obtained from Kyinno (Waltham, MA).
Cell Viability Assay Procedure: Cell Titer-Glo® 2.0 Luminescent cell viability assay reagent was purchased from Promega (Madison, WI). Ba/F3 cell lines were cultured in RPMI1640 media supplemented with 10% fetal bovine serum. Cultures were maintained at 37° C. in a humidified atmosphere of 5% CO2 and 95% air.
Cells were plated in 96-well clear bottom/white plates (Corning #3903) at 10,000 cells/well in 100 μl of media, incubated overnight. The next day, test compound DMSO stock solutions were made at 10 mM and 2 μM final concentration. Compounds were then added to cells in a 9-dose, 10-fold dilution series starting at 30 μM with an HP 300e Digital Dispenser (each dose was applied in triplicate). DMSO was backfilled to each well up to 301 nL total volume of test compound+DMSO, and a total of 301 nL DMSO was added to a control/no test compound well in triplicate. The cells in cell culture plates were incubated with the compounds at 37° C. and 5% CO2 for 48 hours. Then 50 μl of Cell Titer Glo 2.0 reagent was added to each well of the cell culture plates. The contents were covered from light and mixed on an orbital shaker at room temperature for 10 min. Luminescence was recorded by a Synergy H1 Microplate Reader (Biotek, Winooski, VT). Cells were assessed as a percentage of DMSO only treated control cells. Curves were plotted and IC50 values were calculated using the GraphPad Prism 8 program based on a sigmoidal dose-response equation (4 parameter).

A further test concerns KG-1. Put plainly: Cancer cell line cell viability assay (CellTiter-Glo 2.0). In kind it is cell-based. Particulars: Homo sapiens; KG-1 (FGFR1-fusion) cell viability, 72 hours. The text has this:
(§1) Experimental Purpose: To detect the change of intracellular ATP by Cell Titer-Glo® and to evaluate the inhibitory effect of the compounds on cancer cell lines by determining the in vitro IC50 value of the compounds.
(§2) Cell Titer-Glo® 2.0 Luminescent cell viability assay reagent was purchased from Promega (Madison, WI). RT112/84 and KG-1 cell lines were purchased from American Type Culture Collection (Manassas, VA). UM-UC-14 cell line was purchased from Sigma (St. Louis, MO). RT112/84, UM-UC-14, and KG-1 cells were cultured in RPMI1640 media supplemented with 10% fetal bovine serum. Cultures were maintained at 37° C. in a humidified atmosphere of 5% CO2 and 95% air.
(§3) Cell Viability Assay Procedure: Cells were plated in 96-well clear bottom/white plates (Corning #3903) at 10,000 cells/well in 100 μl of media, incubated overnight. The next day, test compound DMSO stock solutions were made at 10 mM and 2 μM final concentration.
(§4) Compounds were then added to cells in a 9-dose, […] dilution series starting at 30 μM with an HP 300e Digital Dispenser (each dose was applied in triplicate). DMSO was backfilled to each well up to 301 nL total volume of test compound+DMSO, and a total of 301 nL DMSO was added to a control/no test compound well in triplicate. The cells in cell culture plates were incubated with the compounds at 37° C. and 5% CO2 for 72 hours. Then 50 μl of Cell Titer Glo 2.0 reagent was added to each well of the cell culture plates. The contents were covered from light and mixed on an orbital shaker at room temperature for 10 min.
(§5) Luminescence was recorded by a Synergy H1 Microplate Reader (Biotek, Winooski, VT). Cells were assessed as a percentage of DMSO only treated control cells. Curves were plotted and IC50 values were calculated using the GraphPad Prism 8 program based on a sigmoidal dose-response equation (4 parameter).

The test system of a further test is RT112/84. The test is described as above. The test is classed as cell-based. The settings on record: Homo sapiens; RT112/84 (FGFR3-fusion) cell viability, 72 hours.
Excerpt: as §1, §2, §3, §4, §5

The test system of the next test is KatoIIII. Described as above. The test is classed as cell-based. Particulars: 72 hours.

The Kd is the concentration at which binding is half-saturated. The term IC50 denotes the midpoint of a concentration-inhibition curve.

T6 sequence (P11362 478-767 limits assumed): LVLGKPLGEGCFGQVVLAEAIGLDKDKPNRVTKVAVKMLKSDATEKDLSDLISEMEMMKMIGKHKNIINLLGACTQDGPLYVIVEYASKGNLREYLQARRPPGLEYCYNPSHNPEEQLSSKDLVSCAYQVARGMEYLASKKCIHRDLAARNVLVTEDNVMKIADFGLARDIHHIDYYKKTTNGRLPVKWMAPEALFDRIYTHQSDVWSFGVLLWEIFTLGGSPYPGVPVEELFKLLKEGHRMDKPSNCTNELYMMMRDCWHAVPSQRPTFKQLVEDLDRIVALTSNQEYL
T9 sequence (P22455 467-755 limits assumed): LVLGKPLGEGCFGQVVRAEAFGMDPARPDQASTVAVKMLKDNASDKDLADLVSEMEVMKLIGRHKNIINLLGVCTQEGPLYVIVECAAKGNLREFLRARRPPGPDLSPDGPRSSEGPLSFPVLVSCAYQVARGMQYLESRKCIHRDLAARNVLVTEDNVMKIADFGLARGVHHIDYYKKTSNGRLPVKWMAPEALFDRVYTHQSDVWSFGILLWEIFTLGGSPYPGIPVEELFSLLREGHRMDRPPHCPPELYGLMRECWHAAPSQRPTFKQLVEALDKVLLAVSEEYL
T1 sequence (P11362 22-822): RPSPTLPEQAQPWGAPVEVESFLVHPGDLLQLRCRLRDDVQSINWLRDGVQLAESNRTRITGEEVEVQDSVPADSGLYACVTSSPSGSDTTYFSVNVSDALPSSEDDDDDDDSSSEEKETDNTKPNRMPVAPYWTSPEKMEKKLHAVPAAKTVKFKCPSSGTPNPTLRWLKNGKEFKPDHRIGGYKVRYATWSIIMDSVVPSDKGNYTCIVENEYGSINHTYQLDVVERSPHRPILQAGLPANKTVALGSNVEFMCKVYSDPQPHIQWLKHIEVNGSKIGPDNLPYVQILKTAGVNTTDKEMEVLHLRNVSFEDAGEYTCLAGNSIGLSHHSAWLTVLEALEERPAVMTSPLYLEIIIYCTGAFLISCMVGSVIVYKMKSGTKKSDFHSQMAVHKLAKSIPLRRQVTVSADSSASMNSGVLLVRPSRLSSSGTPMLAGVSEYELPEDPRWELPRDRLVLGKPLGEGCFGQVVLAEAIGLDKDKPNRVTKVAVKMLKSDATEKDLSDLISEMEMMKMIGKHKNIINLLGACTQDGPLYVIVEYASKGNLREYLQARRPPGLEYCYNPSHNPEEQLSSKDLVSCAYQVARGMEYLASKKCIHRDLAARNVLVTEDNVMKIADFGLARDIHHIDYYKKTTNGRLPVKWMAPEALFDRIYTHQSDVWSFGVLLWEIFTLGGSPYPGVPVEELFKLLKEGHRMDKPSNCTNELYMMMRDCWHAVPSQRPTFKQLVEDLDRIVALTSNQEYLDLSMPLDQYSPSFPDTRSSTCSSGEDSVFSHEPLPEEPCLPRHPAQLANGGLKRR
T4 sequence (P22607 23-806 V555M): as the sequence (P22607 23-806) above, with V533M counted along it
T8 sequence (P22607 397-758 limits assumed): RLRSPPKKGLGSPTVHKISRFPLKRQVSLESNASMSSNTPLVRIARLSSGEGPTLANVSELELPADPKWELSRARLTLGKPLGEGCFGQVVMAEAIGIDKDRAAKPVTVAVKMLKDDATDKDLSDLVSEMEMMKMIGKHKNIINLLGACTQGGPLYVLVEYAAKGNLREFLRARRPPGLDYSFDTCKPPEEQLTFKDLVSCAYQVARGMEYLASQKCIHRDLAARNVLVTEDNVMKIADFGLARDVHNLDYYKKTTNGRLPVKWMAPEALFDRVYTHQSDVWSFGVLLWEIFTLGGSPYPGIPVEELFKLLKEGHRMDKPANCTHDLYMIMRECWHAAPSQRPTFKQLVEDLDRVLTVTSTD

Regarding `C=CC(=O)N1CCC(n2ncc(-c3cc(O[C@@H](CO)c4ccc(F)cn4)c4c(C#N)cnn4c3)c2C)CC1` [Example 2, 4-[(1R)-1-(5-fluoro-2-pyridyl)-2-hydroxy-ethoxy]-6-[5-methyl-1-(1-prop-2-enoyl-4-piperidyl)pyrazol-4-yl]pyrazolo[1,5-a]pyridine-3-carbonitrile], the Kd on FGFR1 was 250 to 1000 nM; at FGFR2, 250 to 1000 nM; at FGFR3 it was 250 to 1000 nM; at FGFR3 (V555M) it was 250 to 1000 nM; on FGFR4, not below 1000 nM; at Ba/F3 BCR-FGFR1, not below 1000 nM. Further, the Kd at Ba/F3 BCR-FGFR2 was not below 1000 nM; at Ba/F3 FGFR3-BAIAP2L1, 250 to 1000 nM; at Ba/F3 ETV5-FGFR4, not below 1000 nM. Further, the IC50 in the test with KG-1 is not below 1000 nM; in the test with RT112/84 it was not below 1000 nM; with KatoIIII, 250 to 1000 nM.
In the case of `C=CC(=O)N1CCC2(CC1)CC(n1ncc(-c3cc(O[C@H](CO)c4ccccn4)c4c(C#N)cnn4c3)c1C)C2` [Example 8, (S)-6-(1-(7-acryloyl-7-azaspiro[3.5]nonan-2-yl)-5-methyl-1H-pyrazol-4-yl)-4-(2-hydroxy-1-(pyridin-2-yl)ethoxy)pyrazolo[1,5-a]pyridine-3-carbonitrile], the Kd at FGFR1 was in the range of 0.1 to 100 nM; at FGFR2, 0.1 to 100 nM; on FGFR3, 0.1 to 100 nM; at FGFR3 (V555M), 0.1 to 100 nM; on FGFR4, 0.1 to 100 nM; at Ba/F3 BCR-FGFR1, 100 to 250 nM. Also, the Kd at Ba/F3 BCR-FGFR2 was 100 to 250 nM; on Ba/F3 FGFR3-BAIAP2L1, 0.1 to 100 nM; on Ba/F3 ETV5-FGFR4 it was 250 to 1000 nM. The IC50 in the test with KG-1, with RT112/84 and with KatoIIII was 100 to 250 nM throughout.
For `C=CC(=O)N1CCC2(CC1)CC(n1ncc(-c3cc(O[C@H](CO)c4ccc(F)cn4)c4c(C#N)cnn4c3)c1C)C2` [Example 9, (S)-6-(1-(7-acryloyl-7-azaspiro[3.5]nonan-2-yl)-5-methyl-1H-pyrazol-4-yl)-4-(1-(5-fluoropyridin-2-yl)-2-hydroxyethoxy)pyrazolo[1,5-a]pyridine-3-carbonitrile], the Kd on FGFR1 fell in the range of 0.1 to 100 nM; at FGFR2 it was 0.1 to 100 nM; on FGFR3, 0.1 to 100 nM; on FGFR3 (V555M), 0.1 to 100 nM; on FGFR4 it was 0.1 to 100 nM; at Ba/F3 BCR-FGFR1, 250 to 1000 nM. For the same compound, the Kd on Ba/F3 BCR-FGFR2 was 100 to 250 nM; on Ba/F3 FGFR3-BAIAP2L1, 0.1 to 100 nM; at Ba/F3 ETV5-FGFR4, 250 to 1000 nM. The IC50 in the test with KG-1 is not below 1000 nM; in the test on RT112/84, 250 to 1000 nM; with KatoIIII, 250 to 1000 nM.
For `C=CC(=O)N1CCC2(CC1)CC(n1nnc(-c3cc(O[C@H](CO)c4ccc(F)cn4)c4c(C#N)cnn4c3)c1C)C2` [Example 13, (S)-6-(1-(7-acryloyl-7-azaspiro[3.5]nonan-2-yl)-5-methyl-1H-1,2,3-triazol-4-yl)-4-(1-(5-fluoropyridin-2-yl)-2-hydroxyethoxy)pyrazolo[1,5-a]pyridine-3-carbonitrile], the Kd on FGFR1 is 0.1 to 100 nM; on FGFR2, 0.1 to 100 nM; at FGFR3 it was 0.1 to 100 nM; at FGFR3 (V555M) it was 0.1 to 100 nM; on FGFR4, 0.1 to 100 nM; at Ba/F3 BCR-FGFR1 it was 250 to 1000 nM. Besides, the results for the Kd on Ba/F3 BCR-FGFR2, at Ba/F3 FGFR3-BAIAP2L1 and at Ba/F3 ETV5-FGFR4 were 100 to 250 nM, 0.1 to 100 nM and 250 to 1000 nM, respectively. In addition, the results for the IC50 in the test with KG-1, with RT112/84 and with KatoIIII were 0.1 to 100 nM, 100 to 250 nM and 100 to 250 nM, respectively.
As to `C=CC(=O)N1CCC2(CC1)CC(n1ncc(-c3cc(OC(CO)c4ccn(C)n4)c4c(C#N)cnn4c3)c1C)C2` (stereo not drawn) [Example 14, 6-(1-(7-acryloyl-7-azaspiro[3.5]nonan-2-yl)-5-methyl-1H-pyrazol-4-yl)-4-(2-hydroxy-1-(1-methyl-1H-pyrazol-3-yl)ethoxy)pyrazolo[1,5-a]pyridine-3-carbonitrile], the Kd fell in the range of 100 to 250 nM at FGFR1; 0.1 to 100 nM at FGFR2; 0.1 to 100 nM at FGFR3; 100 to 250 nM on FGFR3 (V555M); 100 to 250 nM on FGFR4; 250 to 1000 nM at Ba/F3 BCR-FGFR1. Also, the Kd on Ba/F3 BCR-FGFR2 lay in the range of 250 to 1000 nM; on Ba/F3 FGFR3-BAIAP2L1 it was 0.1 to 100 nM; on Ba/F3 ETV5-FGFR4, 250 to 1000 nM. Also, the IC50 with KG-1, in the test with RT112/84 and in the test on KatoIIII was 250 to 1000 nM each time.
In the case of `C=CC(=O)N1CC(OC)(C(=O)N2CCC(n3nnc(-c4cc(O[C@H](CO)c5ccccn5)c5c(C#N)cnn5c4)c3C)CC2)C1` [Example 22, (S)-6-(1-(1-(1-acryloyl-3-methoxyazetidine-3-carbonyl)piperidin-4-yl)-5-methyl-1H-1,2,3-triazol-4-yl)-4-(2-hydroxy-1-(pyridin-2-yl)ethoxy)pyrazolo[1,5-a]pyridine-3-carbonitrile], the dissociation constant Kd at FGFR1 was 0.1 to 100 nM; at FGFR2, 0.1 to 100 nM; at FGFR3, 0.1 to 100 nM; at FGFR3 (V555M), 0.1 to 100 nM; at FGFR4 it was 0.1 to 100 nM; on Ba/F3 BCR-FGFR1, not below 1000 nM. The dissociation constant Kd is not below 1000 nM on Ba/F3 BCR-FGFR2, 0.1 to 100 nM at Ba/F3 FGFR3-BAIAP2L1 and not below 1000 nM at Ba/F3 ETV5-FGFR4. Moreover, the concentration for half-maximal inhibition (IC50) in the test with KG-1, with RT112/84 and in the test on KatoIIII was not below 1000 nM throughout.

Source of the values: patent publication US20260209223A1, “FGFR3 INHIBITOR COMPOUNDS” (TYRA BIOSCIENCES, INC., priority 2022, published 2026).
